Data set [1] addresses Muscarinic acetylcholine receptor M1 (Homo sapiens) (UniProt P11229). Nature of the data set: Displacement of [3H]-Pirenzepine from human muscarinic M1 expressed in CHO-K1 cells membrane at 10 uM incubated for 60 mins by microbeta liquid scintillation counting analysis. The format is cell membranes. As to conditions: Cell membrane.
The target of data set [2] is Muscarinic acetylcholine receptor M5 (Homo sapiens) (UniProt P08912). Description: Displacement of [3H]4-DAMP from human recombinant muscarinic M5 receptor expressed in HEK293 cells at 10 uM incubated for 60 mins by radiometric based scintillation counter assay relative to control. The format is cell-based. For orientation: In a radioligand displacement assay an active substance lowers the binding of a labelled ligand.

For data set [3], the target named is Voltage-dependent L-type calcium channel subunit alpha-1C (Homo sapiens, UniProt Q13936). Nature of the data set: Binding affinity to human Calcium channel L-type (verapamil site) at 10 uM measured after 180 mins by [3H]D888-Radiometric assay relative to control.
Data set [4] has as its system Mus musculus. Nature of the data set: Psychedelic effect in C57BL/6J mouse assessed as induction of 5-HT2A receptor dependent maximal head-twitch responses by visual observation at 1 mg/kg, sc at 15 to 220 mins. The format is functional, organism-based. The settings on record: time lower 15.0 min, time upper […].
For data set [5], the target named is 5-hydroxytryptamine receptor 2C (Homo sapiens) (UniProt P28335). Nature of the data set: Agonist activity at human 5-HT2C receptor expressed in HEK293 cells assessed as maximal IP2 production measured after 30 mins incubation by HTRF assay relative to control. As to conditions: filed as agonist. The format is functional, cell-based. (In general: TR-FRET usually uses a lanthanide donor and a delayed reading to cut background.)

Data set [6] has as its system Mus musculus. Nature of the data set: Locomotor activity in C57BL/6J mouse assessed as distance traveled at 1 mg/kg, ip measured for 15 to 25 mins. As to conditions: time 15-25 min. The format is functional.
Data set [7] has as its target 5-hydroxytryptamine receptor 2B (Homo sapiens, UniProt P41595). Nature of the data set: Agonist activity at human 5-HT2B receptor expressed in CHO cells assessed as maximal IP2 production measured after 30 mins incubation by HTRF assay relative to control. The format is functional, cell-based.
Data set [8] concerns the target Muscarinic acetylcholine receptor M4 (Homo sapiens) (UniProt P08173). Nature of the data set: Displacement of [3H]4-DAMP from human recombinant muscarinic M4 receptor expressed in HEK293 cells at 10 uM incubated for 60 mins by radiometric based scintillation counter assay relative to control. The format is cell-based.
In data set [9] the target is Adrenergic receptor alpha-2 (Rattus norvegicus) (UniProt P22086+P19328+P22909). Nature of the data set: Displacement of [3H]RX 821002 from rat cerebral cortex alpha2 adrenergic receptor assessed as remaining activity at 10 uM after 60 mins by scintillation counting method relative to control.
The target of data set [10] is T1, 5-hydroxytryptamine receptor 1A (Homo sapiens) (UniProt P08908).
T1 sequence (whole entry): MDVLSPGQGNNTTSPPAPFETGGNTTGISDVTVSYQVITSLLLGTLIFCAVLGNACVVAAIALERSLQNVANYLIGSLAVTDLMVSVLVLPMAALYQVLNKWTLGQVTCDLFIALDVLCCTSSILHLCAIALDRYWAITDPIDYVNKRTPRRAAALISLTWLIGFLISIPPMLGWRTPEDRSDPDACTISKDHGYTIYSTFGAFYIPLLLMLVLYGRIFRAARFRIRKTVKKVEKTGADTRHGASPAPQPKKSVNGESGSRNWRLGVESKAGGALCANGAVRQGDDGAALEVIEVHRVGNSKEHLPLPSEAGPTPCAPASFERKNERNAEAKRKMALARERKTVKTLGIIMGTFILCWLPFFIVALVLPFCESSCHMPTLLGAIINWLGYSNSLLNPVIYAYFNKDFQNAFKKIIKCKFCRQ
Description: Agonist activity at human 5-HT1A receptor expressed in HEK293T cells co-transfected with 22F-Glosensor assessed as inhibition of cAMP production measured after 30 mins incubation by Microbeta2Micro-plate counter analysis. The format is functional, cell-based. The settings on record: filed as agonist.

Experimental findings from ChEMBL document CHEMBL5543140 (J Med Chem, 2024) are described below.

For orientation: inhibition means the change of the read-out against control, counted positive when it falls. Usually Emax stands for the greatest response seen or fitted, relative to the assay's reference.

Active and inactive are the calls of the source. No cut-off for these calls is given here.

Sequence of 5-hydroxytryptamine receptor 2B (P41595 whole entry): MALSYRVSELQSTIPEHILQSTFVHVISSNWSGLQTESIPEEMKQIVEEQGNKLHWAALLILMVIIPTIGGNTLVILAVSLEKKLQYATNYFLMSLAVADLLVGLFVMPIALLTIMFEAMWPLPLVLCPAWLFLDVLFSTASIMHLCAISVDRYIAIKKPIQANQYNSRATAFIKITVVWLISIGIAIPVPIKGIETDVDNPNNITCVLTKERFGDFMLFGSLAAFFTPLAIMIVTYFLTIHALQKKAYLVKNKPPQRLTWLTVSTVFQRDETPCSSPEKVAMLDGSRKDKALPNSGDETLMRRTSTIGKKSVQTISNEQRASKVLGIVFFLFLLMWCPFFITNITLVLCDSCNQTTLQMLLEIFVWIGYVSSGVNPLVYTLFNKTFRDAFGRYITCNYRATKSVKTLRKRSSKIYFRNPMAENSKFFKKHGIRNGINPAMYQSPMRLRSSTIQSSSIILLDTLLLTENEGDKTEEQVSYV
Sequence of Muscarinic acetylcholine receptor M5 (Homo sapiens) (P08912 whole entry): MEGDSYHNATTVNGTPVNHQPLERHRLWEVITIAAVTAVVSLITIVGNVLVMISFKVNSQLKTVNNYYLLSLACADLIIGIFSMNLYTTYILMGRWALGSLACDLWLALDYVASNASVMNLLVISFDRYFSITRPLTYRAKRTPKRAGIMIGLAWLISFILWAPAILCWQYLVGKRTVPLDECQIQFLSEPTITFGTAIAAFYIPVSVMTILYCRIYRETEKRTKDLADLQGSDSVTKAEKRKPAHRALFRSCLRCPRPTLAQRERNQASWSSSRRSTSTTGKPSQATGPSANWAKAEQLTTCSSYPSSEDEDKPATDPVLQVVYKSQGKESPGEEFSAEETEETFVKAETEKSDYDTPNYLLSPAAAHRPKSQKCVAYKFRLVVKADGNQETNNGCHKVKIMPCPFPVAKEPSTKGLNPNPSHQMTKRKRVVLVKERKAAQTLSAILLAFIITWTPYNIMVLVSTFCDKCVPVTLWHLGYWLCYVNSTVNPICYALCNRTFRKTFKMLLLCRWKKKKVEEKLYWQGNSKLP
Sequence of Muscarinic acetylcholine receptor M1 (Homo sapiens) (P11229 whole entry): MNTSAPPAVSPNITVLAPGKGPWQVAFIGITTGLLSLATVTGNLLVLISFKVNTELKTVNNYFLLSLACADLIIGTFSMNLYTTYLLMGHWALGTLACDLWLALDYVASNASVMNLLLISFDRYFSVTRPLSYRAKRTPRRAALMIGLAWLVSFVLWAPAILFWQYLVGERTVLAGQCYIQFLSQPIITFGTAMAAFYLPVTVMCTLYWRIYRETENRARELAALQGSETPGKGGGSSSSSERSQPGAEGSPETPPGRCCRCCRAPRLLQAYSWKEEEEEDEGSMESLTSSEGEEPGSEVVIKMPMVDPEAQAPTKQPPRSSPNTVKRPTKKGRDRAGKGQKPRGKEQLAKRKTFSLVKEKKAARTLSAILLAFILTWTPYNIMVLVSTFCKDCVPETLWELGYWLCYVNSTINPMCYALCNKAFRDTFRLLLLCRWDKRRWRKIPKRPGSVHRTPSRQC
Sequence of Voltage-dependent L-type calcium channel subunit alpha-1C (Q13936 whole entry): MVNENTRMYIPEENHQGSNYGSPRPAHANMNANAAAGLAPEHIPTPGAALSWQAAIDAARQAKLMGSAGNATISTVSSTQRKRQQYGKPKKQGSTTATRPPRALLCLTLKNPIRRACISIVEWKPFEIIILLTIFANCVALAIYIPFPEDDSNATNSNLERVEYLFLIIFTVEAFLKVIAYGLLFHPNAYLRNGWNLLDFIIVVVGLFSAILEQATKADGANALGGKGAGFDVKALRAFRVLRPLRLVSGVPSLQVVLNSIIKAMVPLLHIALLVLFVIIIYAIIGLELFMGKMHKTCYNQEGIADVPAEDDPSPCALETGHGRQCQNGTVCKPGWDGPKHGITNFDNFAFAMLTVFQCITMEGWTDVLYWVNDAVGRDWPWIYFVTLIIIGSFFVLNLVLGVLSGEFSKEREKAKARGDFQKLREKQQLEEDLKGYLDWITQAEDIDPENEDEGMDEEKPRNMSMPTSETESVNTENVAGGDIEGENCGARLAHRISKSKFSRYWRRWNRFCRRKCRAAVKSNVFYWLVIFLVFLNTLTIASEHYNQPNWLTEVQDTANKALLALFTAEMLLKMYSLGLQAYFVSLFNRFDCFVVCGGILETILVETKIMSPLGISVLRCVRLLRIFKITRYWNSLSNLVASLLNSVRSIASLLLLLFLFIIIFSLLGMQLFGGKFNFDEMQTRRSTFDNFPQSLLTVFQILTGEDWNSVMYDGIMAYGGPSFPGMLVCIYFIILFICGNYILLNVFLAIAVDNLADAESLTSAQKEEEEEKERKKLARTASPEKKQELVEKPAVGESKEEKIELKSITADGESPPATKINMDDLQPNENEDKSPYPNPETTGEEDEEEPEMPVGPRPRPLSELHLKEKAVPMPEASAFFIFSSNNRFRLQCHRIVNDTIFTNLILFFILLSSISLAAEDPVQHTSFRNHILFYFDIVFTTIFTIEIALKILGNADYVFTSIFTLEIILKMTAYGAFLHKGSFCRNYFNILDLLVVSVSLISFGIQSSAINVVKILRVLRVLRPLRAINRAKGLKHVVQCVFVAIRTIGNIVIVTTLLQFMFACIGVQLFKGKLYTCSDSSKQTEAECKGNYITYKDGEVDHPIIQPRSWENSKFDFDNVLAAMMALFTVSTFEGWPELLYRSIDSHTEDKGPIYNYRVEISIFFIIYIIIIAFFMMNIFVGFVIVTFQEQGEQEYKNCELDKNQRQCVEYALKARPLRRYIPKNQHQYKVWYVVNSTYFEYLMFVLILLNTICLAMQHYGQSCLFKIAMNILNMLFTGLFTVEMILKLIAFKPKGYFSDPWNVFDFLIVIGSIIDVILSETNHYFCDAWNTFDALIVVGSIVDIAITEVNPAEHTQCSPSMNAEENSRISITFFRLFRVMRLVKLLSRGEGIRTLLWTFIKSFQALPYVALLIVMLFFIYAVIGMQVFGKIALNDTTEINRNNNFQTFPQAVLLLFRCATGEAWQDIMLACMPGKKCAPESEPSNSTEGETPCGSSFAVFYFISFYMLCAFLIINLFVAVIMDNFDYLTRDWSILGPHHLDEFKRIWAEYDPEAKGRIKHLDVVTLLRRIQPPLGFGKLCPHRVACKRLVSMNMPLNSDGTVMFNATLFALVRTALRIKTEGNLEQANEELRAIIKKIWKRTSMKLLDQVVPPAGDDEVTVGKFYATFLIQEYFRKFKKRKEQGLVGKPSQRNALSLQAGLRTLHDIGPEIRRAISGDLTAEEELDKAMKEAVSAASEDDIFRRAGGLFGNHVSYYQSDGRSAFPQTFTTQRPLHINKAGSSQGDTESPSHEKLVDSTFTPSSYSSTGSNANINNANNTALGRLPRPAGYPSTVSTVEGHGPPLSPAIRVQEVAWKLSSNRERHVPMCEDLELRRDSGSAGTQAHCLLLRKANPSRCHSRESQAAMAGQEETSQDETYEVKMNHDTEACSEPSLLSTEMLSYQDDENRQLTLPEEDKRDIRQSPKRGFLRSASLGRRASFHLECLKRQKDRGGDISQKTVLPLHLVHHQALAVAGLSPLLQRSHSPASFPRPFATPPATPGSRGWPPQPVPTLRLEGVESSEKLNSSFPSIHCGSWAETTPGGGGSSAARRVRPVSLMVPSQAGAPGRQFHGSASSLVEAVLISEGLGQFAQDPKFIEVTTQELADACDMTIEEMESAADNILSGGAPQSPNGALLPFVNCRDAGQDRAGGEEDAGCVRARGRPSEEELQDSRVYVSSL
Sequence of 5-hydroxytryptamine receptor 2C (Homo sapiens) (P28335 whole entry): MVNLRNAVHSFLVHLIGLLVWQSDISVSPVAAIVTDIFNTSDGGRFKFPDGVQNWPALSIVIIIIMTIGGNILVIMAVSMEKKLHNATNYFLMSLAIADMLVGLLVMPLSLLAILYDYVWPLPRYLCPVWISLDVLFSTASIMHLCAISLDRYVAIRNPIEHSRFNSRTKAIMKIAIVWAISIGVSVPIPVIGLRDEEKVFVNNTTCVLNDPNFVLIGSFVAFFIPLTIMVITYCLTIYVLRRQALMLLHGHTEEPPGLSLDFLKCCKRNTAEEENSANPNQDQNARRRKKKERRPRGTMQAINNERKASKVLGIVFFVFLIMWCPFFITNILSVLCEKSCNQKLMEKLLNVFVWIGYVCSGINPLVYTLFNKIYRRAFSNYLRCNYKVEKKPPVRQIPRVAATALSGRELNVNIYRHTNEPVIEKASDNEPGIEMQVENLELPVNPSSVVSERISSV
Sequence of Muscarinic acetylcholine receptor M4 (Homo sapiens) (P08173 whole entry): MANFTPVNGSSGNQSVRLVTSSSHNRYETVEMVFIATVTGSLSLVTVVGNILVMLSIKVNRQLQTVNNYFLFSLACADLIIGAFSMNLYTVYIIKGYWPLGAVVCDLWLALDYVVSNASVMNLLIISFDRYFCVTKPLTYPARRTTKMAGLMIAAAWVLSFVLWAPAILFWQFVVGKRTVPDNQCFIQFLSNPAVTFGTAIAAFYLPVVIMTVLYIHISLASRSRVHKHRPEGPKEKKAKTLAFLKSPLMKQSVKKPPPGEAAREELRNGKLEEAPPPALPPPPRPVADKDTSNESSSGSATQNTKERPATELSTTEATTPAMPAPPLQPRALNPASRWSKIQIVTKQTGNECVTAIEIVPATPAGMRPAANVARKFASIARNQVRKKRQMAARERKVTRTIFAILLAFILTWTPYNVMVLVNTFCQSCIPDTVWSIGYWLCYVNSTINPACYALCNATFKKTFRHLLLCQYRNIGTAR

`COc1cc(CC(C)N)c(OC)cc1I` (racemic): the inhibition was 72% in data set [1], 63% in data set [2] and 76% in [8]. Further, the Activity in data set [3] worked out at 56%; with Mus musculus [6], 2812 cm; in data set [9] it was 82%. Besides, the result in the data set with Mus musculus [4] was Active. Moreover, the Emax in data set [5] came to 96%; in data set [10], 103%. Further, the EC50 in data set [7] (read-out: EC50) is 7 nM; in data set [7] (read-out: pEC50 (converted)), 7.94 nM.
